{
  "source": "patent US9920100B2",
  "about": "“Mimotopes of tropomyosin for use in immunotherapy for shellfish and/or arthropod allergy” (THE REGENTS OF THE UNIVERSITY OF CALIFORNIA, priority 2016, dated 2018)",
  "system": "Met e 1",
  "test": "ELISA of Met e 1-specific IgG1 and IgG2a in serum of BALB/c mice immunized with mimotope-KLH conjugates",
  "assay_type": "in vivo, Metapenaeus ensis",
  "conditions": "KLH conjugate in BALB/c mice; compared with the Met e 1 epitope (a.a. 251-270) positive control",
  "procedure": "One mimotope peptide was chosen from each of clusters 1-6 (Table 3) and commercially synthesized (Genscript). The mimotopes were conjugated to keyhole limpet hemocyanin (KLH) using Imject EDC mcKLH Spin Kit (Thermo Scientific) according to manufacturer's instructions. Female BALB/c mice (n=4; 5-6 weeks) were immunized subcutaneously with a mimotope conjugate (50 μg in 200 μl PBS) emulsified in Complete Freund's adjuvant on day 0 and Incomplete Freund's adjuvant on days 14 and 21. Blood samples were collected on day 28 from tail vein of the mice. A Der p 1 mimotope (KGIPNTKAP) (Szalai et al., Mot Immunol, 2008; 45, 1308-1317) and an IgE epitope of Met e 1 ([…]; a.a. 251-270) were also included as negative and positive controls, respectively. All animal protocols were approved by the Animal Experimentation Ethics Committee, CUHK, in accordance with the Department of Health (Government of Hong Kong Special Administrative Region, HKSAR) guidelines in Care and Use of Animals. All experiments were performed under licenses granted from the HKSAR Government.\nELISA was performed as previously described (Wai et al., PLoS One, 2014; 9, e111649) to detect Met e 1-specific IgG antibodies. […] 100 μl of 0.1M sulfuric acid was added to each well to stop the reaction after 10 min of incubation and the optical density at 450 nm was determined using microplate reader (BioRad Model 680). […]",
  "data": [
    {"sequence": "GTKLQHFRQ (Synthetic Cluster 4 mimotope) [Cluster 4 mimotope of Met e 1; selected for in vivo verification]", "values": [
      {"measurement": "capacity to induce Met e 1-specific antibodies", "value": "lower capacity"}
    ]}
  ]
}
